Assay results reported in PubChem BioAssay (NCI).
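A five-concentration, 48-hour dose response in 96-well plates underlies each endpoint, interpolated linearly between surrounding concentrations. The concentration for 50% growth inhibition is given as GI50. At the TGI there is no net growth.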

Assays:
Assay in all cases: DTP human tumour cell line panel, 48 h
[1] = system: HCT-116 colon
[2] = system: IGROV1 ovarian
[3] = system: M14 melanoma
[4] = system: NCI-H522 lung
[5] = system: RPMI-8226 leukemia
[6] = system: SF-268 CNS
[7] = system: SF-295 CNS
[8] = system: TK-10 renal
[9] = system: UACC-257 melanoma
[10] = system: SW-620 colon

Structure (SMILES): CCOC(OC1=C(C#N)CCC1)C(CC)[Se]c1ccccc1 (stereo unspecified)
- TGI [1]: 57.6 µM
- TGI [2]: 71 µM
- TGI [3]: 32.3 µM
- TGI [4]: 26.8 µM
- TGI [5]: 49.8 µM
- TGI [6]: 38.7 µM
- TGI [7]: 52.7 µM
- TGI [8]: > 100 µM
- TGI [9]: > 100 µM

Structure (SMILES): O=C(/C=C/c1ccc([N+](=O)[O-])o1)NNC(=O)c1cc2ccccc2cc1O
- GI50 [1]: 0.557 µM
- TGI [1]: 1.72 µM
- GI50 [2]: 3.07 µM
- TGI [2]: > 100 µM
- GI50 [3]: 0.738 µM
- TGI [3]: 2.29 µM
- GI50 [4]: 0.565 µM
- TGI [4]: 2.03 µM
- GI50 [5]: 2.3 µM
- TGI [5]: > 100 µM
- GI50 [6]: 1.29 µM
- TGI [6]: > 100 µM
- GI50 [7]: 7.62 µM
- TGI [7]: > 100 µM
- GI50 [10]: 2.03 µM
- TGI [10]: > 89 µM
- GI50 [8]: 2.9 µM
- TGI [8]: > 100 µM
- GI50 [9]: 0.906 µM
- TGI [9]: 3.92 µM

Structure (SMILES): COc1ccc(N=Cc2ccc(N(CCC#N)CCC#N)cc2)cc1
- TGI [1]: > 100 µM
- TGI [2]: > 100 µM
- TGI [3]: > 100 µM
- TGI [4]: > 100 µM
- TGI [5]: > 100 µM
- TGI [6]: > 100 µM
- TGI [7]: > 100 µM
- TGI [10]: > 100 µM
- TGI [8]: > 89 µM
- TGI [9]: > 100 µM

Structure (SMILES): Cc1ccc2c(c1)sc(-c1ccc(N(C)C)cc1)[n+]2C
- GI50 [1]: 0.502 µM
- TGI [1]: > 34.6 µM
- GI50 [2]: 3.77 µM
- TGI [2]: > 100 µM
- GI50 [3]: 1.79 µM
- TGI [3]: > 38 µM
- GI50 [4]: 1.45 µM
- TGI [4]: > 100 µM
- GI50 [5]: 0.13 µM
- TGI [5]: 5.15 µM
- GI50 [6]: 2.44 µM
- TGI [6]: 24.9 µM
- GI50 [7]: 0.72 µM
- TGI [7]: > 22.8 µM
- GI50 [10]: 2.28 µM
- TGI [10]: > 66 µM
- GI50 [8]: 1.99 µM
- TGI [8]: 11.2 µM
- GI50 [9]: 0.657 µM
- TGI [9]: 19.9 µM

Structure (SMILES): COc1cccc2c(=O)c3c(sc12)c(NCCCN)nc1ccccc13
- GI50 [2]: 0.858 µM
- TGI [2]: 2.16 µM
- GI50 [4]: 1.81 µM
- TGI [4]: 3.65 µM
- GI50 [5]: 2.11 µM
- TGI [5]: 4.92 µM
- GI50 [6]: 1.48 µM
- TGI [6]: 3.32 µM
- GI50 [7]: 1.77 µM
- TGI [7]: 3.25 µM
- GI50 [10]: 1.3 µM
- TGI [10]: 2.81 µM
- GI50 [8]: 1.99 µM
- TGI [8]: 3.63 µM
- GI50 [9]: 2 µM
- TGI [9]: 4.17 µM

Structure (SMILES): CC1(C)C(=O)/C(=C\c2ccco2)C[C@]2(C)[C@H]3CC=C4[C@@H]5C[C@](C)(C(=O)O)CC[C@]5(C)CC[C@@]4(C)[C@]3(C)CC[C@@H]12
- GI50 [1]: 7.27 µM
- TGI [1]: 26.1 µM
- GI50 [2]: 8.56 µM
- TGI [2]: 28.3 µM
- GI50 [3]: 13.3 µM
- TGI [3]: 35.1 µM
- GI50 [4]: 9.26 µM
- TGI [4]: 25.6 µM
- GI50 [5]: 4.2 µM
- TGI [5]: 47.9 µM
- GI50 [6]: 12.1 µM
- TGI [6]: 28.2 µM
- GI50 [7]: 7.06 µM
- TGI [7]: 24.6 µM
- GI50 [10]: 10.2 µM
- TGI [10]: 25.9 µM
- GI50 [8]: 13.1 µM
- TGI [8]: 36.7 µM
- GI50 [9]: 12.5 µM
- TGI [9]: 38.9 µM

Structure (SMILES): Cc1ccc(S(=O)(=O)ON/N=C2/C3OC3[C@@H]3CCCC[C@H]23)cc1 (stereo partly specified)
- TGI [2]: > 100 µM
- TGI [3]: > 100 µM
- TGI [4]: > 100 µM
- TGI [5]: > 100 µM
- TGI [6]: > 100 µM
- TGI [7]: > 100 µM
- TGI [10]: > 100 µM
- TGI [8]: > 100 µM
- TGI [9]: 32.5 µM

Structure (SMILES): COC1C(=O)CCC2(CO2)C1(O)C1(C)OC1CCC(C)C (stereo unspecified)
- TGI [1]: > 100 µM
- TGI [2]: > 100 µM
- TGI [3]: > 100 µM
- TGI [4]: > 100 µM
- TGI [5]: > 100 µM
- TGI [6]: > 100 µM
- TGI [7]: > 100 µM
- TGI [10]: > 100 µM
- TGI [9]: > 100 µM

Structure (SMILES): O=C(O)c1[nH]c(C(=O)O)c(CC(F)(F)C(F)(F)C(F)(F)F)c1CC(F)(F)C(F)(F)C(F)(F)F
- TGI [1]: > 100 µM
- TGI [2]: > 100 µM
- TGI [3]: > 100 µM
- TGI [4]: > 100 µM
- TGI [5]: > 100 µM
- TGI [6]: > 100 µM
- TGI [7]: > 100 µM
- TGI [10]: > 100 µM
- TGI [8]: > 100 µM
- TGI [9]: > 100 µM

Structure (SMILES): O=C1Cc2c(-c3ccccc3)cc(-c3cccc(Cl)c3)nc2-c2ccccc2N1
- TGI [1]: 4.13 µM
- TGI [2]: 6.45 µM
- TGI [3]: > 63.9 µM
- TGI [4]: 5.1 µM
- TGI [5]: > 93 µM
- TGI [6]: 14 µM
- TGI [7]: 28.6 µM
- TGI [10]: > 100 µM
- TGI [8]: 3.62 µM
- TGI [9]: 24.1 µM

Structure (SMILES): CCN(CC)C(=S)SSC1CCCCC1
- GI50 [1]: 12.9 µM
- TGI [1]: 25.8 µM
- GI50 [2]: 17.2 µM
- TGI [2]: 38.4 µM
- GI50 [3]: 14.4 µM
- TGI [3]: 30.9 µM
- GI50 [4]: 2.91 µM
- TGI [4]: 12.7 µM
- GI50 [5]: 9.99 µM
- TGI [5]: 31.4 µM
- GI50 [6]: 23.1 µM
- TGI [6]: 60.9 µM
- GI50 [7]: 17.6 µM
- TGI [7]: 44.6 µM
- GI50 [10]: 11.7 µM
- TGI [10]: 26.2 µM
- GI50 [8]: 18 µM
- TGI [8]: 34.6 µM
- GI50 [9]: 22.5 µM
- TGI [9]: 65 µM

Structure (SMILES): C=C1C(O)C2C(=C(CC(C)C)C13CC3)C(=O)C(C)(C)C2OC (stereo unspecified)
- GI50 [1]: 81.5 µM
- TGI [1]: > 100 µM
- GI50 [3]: > 100 µM
- TGI [3]: > 100 µM
- GI50 [4]: > 100 µM
- TGI [4]: > 100 µM
- GI50 [5]: 65.3 µM
- TGI [5]: > 100 µM
- GI50 [6]: > 100 µM
- TGI [6]: > 100 µM
- GI50 [7]: > 100 µM
- TGI [7]: > 100 µM
- GI50 [10]: > 100 µM
- TGI [10]: > 100 µM
- GI50 [8]: > 100 µM
- TGI [8]: > 100 µM
- GI50 [9]: > 100 µM
- TGI [9]: > 100 µM

Structure (SMILES): O=C(Nc1ccc(Br)cc1)c1cc(Br)cc(Br)c1O
- GI50 [1]: 2.41 µM
- TGI [1]: 8.31 µM
- GI50 [2]: 3.02 µM
- TGI [2]: 15.6 µM
- GI50 [3]: 2.99 µM
- TGI [3]: 11.3 µM
- GI50 [4]: 2.23 µM
- TGI [4]: 7.7 µM
- GI50 [5]: 1.67 µM
- TGI [5]: 6.26 µM
- GI50 [6]: 3.59 µM
- TGI [6]: 18.6 µM
- GI50 [7]: 1.83 µM
- TGI [7]: 5 µM
- GI50 [10]: 3.39 µM
- TGI [10]: 12.6 µM
- GI50 [8]: 4.2 µM
- TGI [8]: > 100 µM
- GI50 [9]: 2.08 µM
- TGI [9]: 5.41 µM

Structure (SMILES): CN(C)CN1C(=O)S/C(=C2\C(=O)N(CN(C)C)c3ccccc32)C1=O
- TGI [1]: > 100 µM
- TGI [2]: > 100 µM
- TGI [3]: 68.3 µM
- TGI [4]: > 100 µM
- TGI [5]: 54.8 µM
- TGI [6]: > 100 µM
- TGI [7]: > 100 µM
- TGI [10]: 93.1 µM
- TGI [8]: > 100 µM
- TGI [9]: > 100 µM

Structure (SMILES): Cc1ccc(C)c(NC(=O)/C(=N\NC(N)=S)C(C#N)c2ccccc2)c1 (stereo unspecified)
- TGI [1]: > 100 µM
- TGI [2]: > 100 µM
- TGI [3]: > 100 µM
- TGI [4]: > 100 µM
- TGI [5]: > 100 µM
- TGI [6]: > 100 µM
- TGI [7]: > 100 µM
- TGI [10]: > 100 µM
- TGI [8]: > 100 µM
- TGI [9]: > 100 µM

Structure (SMILES): N#C/C(=C(\O)C(=O)O)c1ccc(-c2cccc3ccccc23)cc1
- TGI [1]: > 100 µM
- TGI [2]: > 100 µM
- TGI [3]: > 100 µM
- TGI [4]: > 100 µM
- TGI [5]: > 100 µM
- TGI [6]: > 100 µM
- TGI [7]: > 100 µM
- TGI [10]: > 100 µM
- TGI [8]: > 100 µM
- TGI [9]: > 100 µM
